The source of these data is US10654816B2, “Compounds and compositions for treating conditions associated with NLRP activity” (NOVARTIS INFLAMMASOME RESEARCH, INC., priority 2017, dated 2020).

One assay relates to IL-1β production in PMA-differentiated THP-1 cells. The assay is described as follows: IL-1β production in PMA-differentiated THP-1 cells stimulated with gramicidin (hTHP-1 assay, HTRF readout; Procedures 1-3). The class given is cell-based, human. To be noted: Homo sapiens, THP-1, hTHP-1 assay containing 2% fetal bovine serum; average; class symbols; read-out: hTHP-1 IC50 (Average IC50 of compounds in hTHP-1 assay). The protocol:
The Following Protocol is Suitable for Testing the Activity of the Compounds Disclosed Herein. Procedure 1: IL-1B Production in PMA-Differentiated THP-1 Cells Stimulated with Gramicidin.
THP-1 cells were purchased from the American Type Culture Collection and sub-cultured according to instructions from the supplier. Cells were cultured in complete RPMI 1640 (containing 10% heat inactivated FBS, penicillin (100 units/ml) and streptomycin (100 μg/ml)), and maintained in log phase prior to experimental setup. Prior to the experiment, compounds were dissolved in dimethyl sulfoxide (DMSO) to generate a 30 mM stock. The compound stock was first pre-diluted in DMSO to 3, 0.34, 0.042 and 0.0083 mM intermediate concentrations and subsequently spotted using Echo550 liquid handler into an empty 384-well assay plate to achieve desired final concentration (e.g. 100, 33, 11, 3.7, 1.2, 0.41, 0.14, 0.046, 0.015, 0.0051, 0.0017 μM). DMSO was backfilled in the plate to achieve a final DMSO assay concentration of 0.37%. The plate was then sealed and stored at room temperature until required.
THP-1 cells were treated with PMA (Phorbol 12-myristate 13-acetate) (20 ng/ml) for 16-18 hours. On the day of the experiment the media was removed and adherent cells were detached with trypsin for 5 minutes. Cells were then harvested, washed with complete RPMI 1640, spun down, and resuspended in RPMI 1640 (containing 2% heat inactivated FBS, penicillin (100 units/ml) and streptomycin (100 μg/ml). The cells were plated in the 384-well assay plate containing the spotted compounds at a density of 50,000 cells/well (final assay volume 50 μl). Cells were incubated with compounds for 1 hour and then stimulated with gramicidin (5 μM) (Enzo) for 2 hours. Plates were then centrifuged at 340 g for 5 min. Cell free supernatant (40 μL) was collected using a 96-channel PlateMaster (Gilson) and the production of IL-1β was evaluated by HTRF (cisbio). The plates were incubated for 18 h at 4° C. and read using the preset HTRF program (donor emission at 620 nm, acceptor emission at 668 nm) of the SpectraMax i3x spectrophotometer (Molecular Devices, software SoftMax 6). A vehicle only control and a dose titration of CRID3 (100-0.0017 μM) were run concurrently with each experiment.
Procedure 2: IL-1β Production in PMA-Differentiated THP-1 Cells Stimulated with Gramicidin.
THP-1 cells were purchased from the American Type Culture Collection and sub-cultured according to instructions from the supplier. Prior to experiments, cells were cultured in complete RPMI 1640 (containing 10% heat inactivated FBS, penicillin (100 units/ml) and streptomycin (100 μg/ml)), and maintained in log phase prior to experimental setup. Prior to the experiment THP-1 were treated with PMA (Phorbol 12-myristate 13-acetate) (20 ng/ml) for 16-18 hours. Compounds were dissolved in dimethyl sulfoxide (DMSO) to generate a 30 mM stock.
On the day of the experiment the media was removed and adherent cells were detached with trypsin for 5 minutes. Cells were then harvested, washed with complete RPMI 1640, spun down, resuspended in RPMI 1640 (containing 2% heat inactivated FBS, penicillin (100 units/ml) and streptomycin (100 μg/ml). The cells were plated in a 384-well plate at a density of 50,000 cells/well (final assay volume 50 μl). Compounds were first dissolved in assay medium to obtain a 5× top concentration of 500 μM. 10 step dilutions (1:3) were then undertaken in assay medium containing 1.67% DMSO. 5× compound solutions were added to the culture medium to achieve desired final concentration (e.g. 100, 33, 11, 3.7, 1.2, 0.41, 0.14, 0.046, 0.015, 0.0051, 0.0017 μM). Final DMSO concentration was at 0.37%. Cells were incubated with compounds for 1 hour and then stimulated with gramicidin (5 μM) (Enzo) for 2 hours. Plates were then centrifuged at 340 g for 5 min. Cell free supernatant (40 μL) was collected using a 96-channel PlateMaster (Gilson) and the production of IL-1β was evaluated by HTRF (cisbio). […]
As to `COCCN(C)Cc1ccc(S(N)(=O)=NC(=O)Nc2c3c(cc4c2CCC4)CCC3)cc1` (single isomer, unassigned) [Example 390, (R) or (S)-N′-((1,2,3,5,6,7-hexahydro-s-indacen-4-yl)carbamoyl)-4-(((2-methoxyethyl)(meth-yl)amino)methyl)benzene-sulfonimidamide], the IC50 lay within 1000 to 5000 nM.
Take `CC(C)Cc1ccc(S(N)(=O)=NC(=O)Nc2c3c(cc4c2CCC4)CCC3)cn1` (stereo not shown) [Example 275, N′-(1,2,3,5,6,7-hexahydro-s-indacen-4-ylcarbamoyl)-6-isobutylpyridine-3-sulfonimidamide]: the IC50 lay within 1000 to 5000 nM.
As to `CC(C)c1cc(F)cc(C(C)C)c1NC(=O)N=S(N)(=O)c1cnc2ccccc2c1` (stereo not shown) [Example 218, N′-((4-fluoro-2,6-diisopropyl-phenyl)carbamoyl)quinoline-3-sulfonimidamide], the IC50 lay in the range of 1000 to 5000 nM.
Same read-out and setting: the value for `CC(C)(O)c1nc(CO)c(S(N)(=O)=NC(=O)Nc2c3c(c(C#N)c4c2CCC4)CCC3)s1` (stereo not shown) [Example 69, N′-((8-cyano-1,2,3,5,6,7-hexahydro-s-indacen-4-yl)carbamoyl)-4-(hydroxymethyl)-2-(2-hydroxypropan-2-yl)thiazole-5-sulfonimidamide] was 1000 to 5000 nM.
With `CC(C)c1cc(C#N)cc(C(C)C)c1NC(=O)N=S(N)(=O)c1ncc(C(C)(C)O)s1` (stereo not shown) [Example 35, N′-(4-cyano-2,6-diisopropylphenylcarbamoyl)-5-(2-hydroxypropan-2-yl)thiazole-2-sulfonimidamide], the IC50 fell in the range of 200 to 1000 nM.
On to `Cc1oc([S@](N)(=O)=NC(=O)Nc2c3c(cc4c2CCC4)CCC3)cc1C(C)(C)O` (single isomer, unassigned) [Example 3], for which the IC50 lay within 200 to 1000 nM.
Still for that read-out and setting: the value for `CC(C)c1cc(F)cc(C(C)C)c1NC(=O)N=S(N)(=O)c1ccc(C(C)(C)O)cc1` (single isomer, unassigned) [Example 83, (S)- or (R)-N′-(4-fluoro-2,6-diisopropylphenylcarbamoyl)-4-(2-hydroxypropan-2-yl)benzenesulfonimidamide] was 1000 to 5000 nM.
On the same count and under the same terms, the value for `Cc1oc(S(N)(=O)=NC(=O)Nc2c(C(C)C)cncc2C(C)C)cc1C(C)(C)O` (stereo not shown) [Example 222, N′-((3,5-diisopropylpyridin-4-yl)carbamoyl)-4-(2-hydroxypropan-2-yl)-5-methylfuran-2-sulfonimidamide] was 200 to 1000 nM; that for `CC(C)(O)c1cnc(S(N)(=O)=NC(=O)Nc2c3c(cc4c2CCC4)CCC3)s1` (stereo not shown) [Example 64, N′-((1,2,3,5,6,7-hexahydro-s-indacen-4-yl)carbamoyl)-5-(2-hydroxypropan-2-yl)thiazole-2-sulfonimidamide] was […]; that for `Cc1sc(S(N)(=O)=NC(=O)Nc2c3c(cc4c2CCC4)CCC3)nc1C(C)(C)O` (stereo not shown) [Example 265, N′-(1,2,3,5,6,7-hexahydro-s-indacen-4-ylcarbamoyl)-4-(2-hydroxypropan-2-yl)-5-methylthiazole-2-sulfonimidamide] was 40 to 200 nM.
Take `Cc1cc(C(C)(C)O)ccc1S(N)(=O)=NC(=O)Nc1c(C(C)C)cc(OC(F)F)cc1C1CC1` (single isomer, unassigned) [Example 119, (S)- or (R)-N′-(2-cyclopropyl-4-(difluoromethoxy)-6-isopropylphenylcarbamoyl)-4-(2-hydroxypropan-2-yl)-2-methylbenzenesulfonimidamide]: the IC50 was in the range of 5000 to 30000 nM.
Same read-out and setting: the value for `CN(C)Cc1ccc(S(N)(=O)=NC(=O)Nc2c3c(cc4c2CCC4)CCC3)cn1` (stereo not shown) [Example 276, 6-((Dimethylamino)methyl)-N′-(1,2,3,5,6,7-hexahydro-s-indacen-4-ylcarbamoyl)pyridine-3-sulfonimidamide] was 200 to 1000 nM; that for `CC(=O)N(C)Cc1cccc(S(N)(=O)=NC(=O)Nc2c3c(cc4c2CCC4)CCC3)c1` (single isomer, unassigned) [Example 368, (R) or (S)-N-(3-(N′-((1,2,3,5,6,7-hexahydro-s-indacen-4-yl)carbamoyl)sulfamid-imidoyl)benzyl)-N-methylacetamide] was 1000 to 5000 nM.
In the case of `CN(Cc1ccc(S(N)(=O)=NC(=O)Nc2c3c(cc4c2CCC4)CCC3)cc1)CC1CC1` (stereo not shown) [Example 240, 4-(((Cyclopropyl-methyl)(methyl)amino)methyl)-N′-(1,2,3,5,6,7-hexahydro-s-indacen-4-ylcarbamoyl)benzenesulfonimidamide], the IC50 lay in the range of 1000 to 5000 nM.
The same measure, in the same setting: the value for `CC(C)(O)c1ccc(F)c(S(N)(=O)=NC(=O)Nc2c3c(c(F)c4c2CCC4)CCC3)c1` (single isomer, unassigned) [Example 168, (S)- or (R)-2-fluoro-N′-((8-fluoro-1,2,3,5,6,7-hexahydro-s-indacen-4-yl)carbamoyl)-5-(2-hydroxypropan-2-yl)benzenesulfonimidamide] was 200 to 1000 nM.
As for `CN(Cc1ccc(S(N)(=O)=NC(=O)Nc2c3c(cc4c2CCC4)CCC3)cc1)CC(F)F` (stereo not shown) [Example 241, 4-(((2,2-Difluoroethyl)(methyl)amino)methyl)-N′-(1,2,3,5,6,7-hexahydro-s-indacen-4-ylcarbamoyl)benzenesulfonimidamide], the IC50 is 1000 to 5000 nM.

Still in this assay, the particulars now being: Homo sapiens, THP-1, hTHP-1 assay containing 2% fetal bovine serum; average; given as bound; read-out: hTHP-1 IC50 (Average IC50 of compounds in hTHP-1 assay).
`CC(C)c1cc(OC(F)F)cc(C2CC2)c1NC(=O)N=S(N)(=O)c1ccc(CN(C)C)cc1` (single isomer, unassigned) [Example 134, (S)- or (R)-N′-(2-cyclopropyl-4-(difluoromethoxy)-6-isopropylphenylcarbamoyl)-4-((dimethylamino)methyl)benzenesulfonimidamide]: the half-maximal inhibitory concentration (IC50) was greater than 30000 nM.
On the same count and under the same terms, the value for `CC(C)Cc1ccc(S(N)(=O)=NC(=O)Nc2c3c(cc4c2CCC4)CCC3)cc1` (stereo not shown) [Example 277, N′-(1,2,3,5,6,7-hexahydro-s-indacen-4-ylcarbamoyl)-4-isobutylbenzenesulfonimidamide] was greater than 30000 nM; that for `CN1CCc2cc(S(N)(=O)=NC(=O)Nc3c4c(cc5c3CCC5)CCC4)ccc2C1` (single isomer, unassigned) [Example 396, (S) or (R)-N′-((1,2,3,5,6,7-hexahydro-s-indacen-4-yl)carbamoyl)-2-methyl-1,2,3,4-tetrahydroisoquinoline-6-sulfonimidamide] was greater than 30000 nM; that for `CC(C)Cc1ccc(S(N)(=O)=NC(=O)Nc2c3c(cc4c2CCC4)CCC3)cn1` (single isomer, unassigned) [Example 415, (R) or (S)-N′-((1,2,3,5,6,7-hexahydro-s-indacen-4-yl)carbamoyl)-6-isobutylpyridine-3-sulfonimidamide] was greater than 30000 nM.

The assay is the same for the next values; noted with them: hTHP-1 assay containing 2% fetal bovine serum; average; class symbols; read-out: hTHP-1 IC50 (Average IC50 of compounds in hTHP-1 assay).
Take `CC(C)(O)c1ncc([S@@](N)(=O)=NC(=O)Nc2c3c(cc4c2CC4)CCC3)s1` (single isomer, unassigned) [Example 225]: the half-maximal inhibitory concentration (IC50) fell in the range of 1000 to 5000 nM.
Same read-out and setting: the value for `CC(C)(O)c1ncc(S(N)(=O)=NC(=O)Nc2c3c(cc4c2CCC4O)CCC3)s1` (single isomer, unassigned) [Example 338, (R, S) or (R, R)-N′-((1-hydroxy-1,2,3,5,6,7-hexahydro-s-indacen-4-yl)carbamoyl)-2-(2-hydroxypropan-2-yl)thiazole-5-sulfonimidamide] was 1000 to 5000 nM.

One may read the IC50 as the concentration that inhibits the measured activity by half.
